These are literature values, as cited in US20030133985A1, “Formulation of an erodible, gastric retentive oral dosage form using in vitro disintegration test data” (priority 2001, published 2003).

The conditions of this data set: at 20° C.

Turning to `CC1(C)O[C@@H]2[C@@H](CO[C@@]3(COS(N)(=O)=O)OC(C)(C)O[C@@H]23)O1` [topiramate], the water solubility was 1%.
